Results on 1 molecule are retold here after patent publication US5079265A, “Composition and methods for providing optimum bioavailability of the active ingredient 2-hydroxy-5-methyllaurophenoxime (HMLO)” (VEB Fahlberg-List Chemische und pharmazeutische Fabriken, priority 1989, dated 1992).

Data set [1] is described as follows: In vivo absorption of HMLO active ingredient by rabbits after oral administration as a function of the auxiliaries used. As to conditions: 12 mg/kg. The source says: In Vivo Absorption of HMLO Active Ingredient by the Rabbits After Oral Administration as a Function of the Auxiliaries Used.
Data set [2] is described as follows: Absorption of HMLO in vitro and in vivo in the presence of bile acids. As to conditions: compared with pure active ingredient and known preparations. The source says:
This improvement is observed also in comparison with the oily preparation, although the same mechanism for affecting the absorption obviously forms the basis for this preparation.

The nature of data set [3]: Effect of different auxiliaries on the solubility of HMLO active ingredient in water at 293° K. Format: physicochemical. As to conditions: for solubility: water, 293° K. On the procedure: Effect of Different Auxiliaries on the Solubility of HMLO Active Ingredient in Water at 293° K.
For data set [4] the following is noted: cited from earlier work.

≈ marks a conversion by molar mass, not a printed value.

Regarding `CCCCCCCCCCCC(=NO)c1cc(C)ccc1O` [HMLO, 2-hydroxy-5-methyllaurophenoxime], the Absorption result in data set [1] (bile acids as auxiliary, compared with oil) was “distinctly exceeded by the use of bile acids”; in data set [1] (oil as auxiliary), “clearly affected by the use of oil as auxiliary”; in data set [1] (without auxiliaries) it was “not absorbed to a measurable extent”; in data set [2], “improved clearly in vitro and in vivo in the presence of bile acids”. Further, the Solubility in water result in data set [3] (pure HMLO, no auxiliary) is given as “insoluble”. Besides, the solubility – broadly, the concentration that dissolves in the medium under given conditions – is 130 µg/mL (≈ 426 µM) in data set [3] (auxiliary Tween (R) 80 0.75%); 24 µg/mL (≈ 78.6 µM) in data set [3] (auxiliary benzalkonium bromide 1.00%); 1 µg/mL (≈ 3.27 µM) in data set [3] (auxiliary polyethylene glycol 6500 10.00%); 2.3 µg/mL (≈ 7.53 µM) in data set [3] (auxiliary propylene glycol 1.00%); 2750 µg/mL (≈ 9000 µM) in data set [3] (auxiliary sodium desoxycholate 0.75%). Also, the “Side effects on long-term treatment” value in data set [4] (oily preparation) is “occurrence of diarrhea”. In addition, the Bioavailability entry in data set [4] (solutions and emulsions containing oils) was “the bioavailability can be increased”.
